Entries after “also recorded” stand apart in the source; their conditions may differ.
Key:
[1] = Phase II clinical trial of concurrent low-dose Ubenimex and low-dose Afatinib: adverse effects; type: in vivo, human patients; settings: within the combination (FIG. 2)
Procedure: To patients with non-small cell lung cancer having a mutation in the epidermal growth factor receptor (EGFR) gene, 10 mg/day of Ubenimex in a single dose unit (free form) and 20 mg/day of Afatinib (Giotrif®, dimaleate) in a single dose unit were administered in concurrently once a day until no antitumor effects would be exerted. The therapeutic effects and reduction of adverse effects were then inspected. […]

[2] = Afatinib 40 mg/day alone; terminal (stage III to IV) NSCLC patients; 229 patients, phase III; cited from earlier work

SMILES	adverse effects of Ubenimex at about 10 mg/day ([1]; about 10 mg/day in a single dose unit)	adverse effects of Afatinib at about 20 mg/day, such as diarrhea or rashes ([1]; about 20 mg/day in a single dose unit)	adverse effects, such as diarrhea and rashes [2]
CC(C)C[C@H](NC(=O)[C@@H](O)[C@H](N)Cc1ccccc1)C(=O)O [Ubenimex, (2S)-2-[(2S,3R)-3-amino-2-hydroxy-4-phenylbutanoylamino]-4-methylpentanoic acid]	substantially no adverse effects	–	–
CN(C)CC=CC(=O)Nc1cc2c(Nc3ccc(F)c(Cl)c3)ncnc2cc1O[C@H]1CCOC1 [Afatinib, N-[4-[(3-chloro-4-fluorophenyl)amino]-7-[[(3S)-tetrahydro-3-furanyl]oxy]-6-quinazolinyl]-4-(dimethylamino)-2-butenamide]	–	substantially no adverse effects	likely to appear; also recorded: likely to be caused

Reference: patent US20240238293A1, “COMBINED PHARMACEUTICAL PREPARATION FOR TREATING A TERMINAL NON-SMALL CELL LUNG CANCER PATIENT WITH BRAIN METASTASIS” (DELTA-FLY PHARMA, INC., priority 2020, published 2024)
